Assays:
Test in all cases: radiometric filter-binding kinase assay, Kinase HotSpot
Details in all cases: compound 0.5 µM; ATP 10 µM
[1] = molecular target: LTK (human) (UniProt P29376)
[2] = molecular target: PRKCH (human) (UniProt P24723)
[3] = molecular target: CDK1 CCNB1 (human) (UniProt P06493+P14635)
[4] = molecular target: STK33 (human) (UniProt Q9BYT3)
[5] = molecular target: DYRK1B (human) (UniProt Q9Y463)
[6] = molecular target: CSNK1A1 (human) (UniProt P48729)
[7] = molecular target: FYN (human) (UniProt P06241)
[8] = molecular target: CDK2 CCNA2 (human) (UniProt P24941+P20248)
Sequence of CDK2 CCNA2 (human) (P20248 whole entry, looked up, other chains not shown): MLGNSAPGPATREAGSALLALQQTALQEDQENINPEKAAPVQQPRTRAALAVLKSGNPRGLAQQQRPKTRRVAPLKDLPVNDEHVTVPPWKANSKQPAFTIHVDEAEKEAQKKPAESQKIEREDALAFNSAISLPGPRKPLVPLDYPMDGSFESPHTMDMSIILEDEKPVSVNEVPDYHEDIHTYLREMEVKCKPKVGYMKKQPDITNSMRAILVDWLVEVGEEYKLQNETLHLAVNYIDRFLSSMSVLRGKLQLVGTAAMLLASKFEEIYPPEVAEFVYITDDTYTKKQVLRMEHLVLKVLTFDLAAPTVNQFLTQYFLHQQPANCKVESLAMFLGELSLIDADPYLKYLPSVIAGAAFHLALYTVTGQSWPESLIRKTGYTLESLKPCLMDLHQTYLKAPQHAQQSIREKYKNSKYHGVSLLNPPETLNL

[9] = molecular target: CDK1 CCNA2 (human) (UniProt P06493+P20248)
Sequence of CDK1 CCNA2 (human) (P06493 whole entry, looked up): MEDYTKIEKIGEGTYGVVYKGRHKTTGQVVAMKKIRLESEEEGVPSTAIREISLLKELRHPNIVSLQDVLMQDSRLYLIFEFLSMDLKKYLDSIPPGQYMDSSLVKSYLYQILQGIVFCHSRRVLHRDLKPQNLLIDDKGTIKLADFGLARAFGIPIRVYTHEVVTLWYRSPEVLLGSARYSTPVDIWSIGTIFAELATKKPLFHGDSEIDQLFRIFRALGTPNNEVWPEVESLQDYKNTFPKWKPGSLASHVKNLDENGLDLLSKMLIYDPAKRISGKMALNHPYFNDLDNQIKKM
Sequence of CDK1 CCNA2 (human) (P20248 whole entry, looked up): as the sequence (P20248 whole entry, looked up, other chains not shown) above

[10] = molecular target: CDK6 CCND1 (human) (UniProt Q00534+P24385)
[11] = molecular target: CDK9 CCNK (human) (UniProt O75909+P50750)
[12] = molecular target: CDK3 CCNE1 (human) (UniProt Q00526+P24864)
Sequence of CDK3 CCNE1 (human) (P24864 whole entry, looked up): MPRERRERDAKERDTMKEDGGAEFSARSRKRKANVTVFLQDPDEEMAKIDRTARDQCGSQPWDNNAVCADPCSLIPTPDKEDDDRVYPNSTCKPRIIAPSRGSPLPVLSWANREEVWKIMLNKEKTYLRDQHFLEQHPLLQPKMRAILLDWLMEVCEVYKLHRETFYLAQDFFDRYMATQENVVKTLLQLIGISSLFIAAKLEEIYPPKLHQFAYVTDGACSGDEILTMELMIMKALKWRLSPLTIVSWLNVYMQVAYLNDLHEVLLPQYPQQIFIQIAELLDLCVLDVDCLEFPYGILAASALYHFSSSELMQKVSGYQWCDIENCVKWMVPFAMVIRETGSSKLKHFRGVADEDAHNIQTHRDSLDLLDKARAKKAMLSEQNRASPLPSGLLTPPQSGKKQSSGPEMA
Sequence of CDK3 CCNE1 (human) (Q00526 whole entry, looked up): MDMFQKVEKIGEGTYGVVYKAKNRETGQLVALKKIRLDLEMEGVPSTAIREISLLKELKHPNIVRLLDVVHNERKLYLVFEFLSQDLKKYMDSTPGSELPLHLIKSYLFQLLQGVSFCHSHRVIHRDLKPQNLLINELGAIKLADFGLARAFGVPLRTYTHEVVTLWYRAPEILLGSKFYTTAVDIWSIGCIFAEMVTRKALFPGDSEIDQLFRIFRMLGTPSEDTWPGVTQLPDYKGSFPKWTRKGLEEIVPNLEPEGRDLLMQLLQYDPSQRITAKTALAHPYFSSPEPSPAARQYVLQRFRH

[13] = molecular target: CDK6 CCND3 (human) (UniProt P30281+Q00534)
[14] = molecular target: CDK7 CCNH MNAT1 (human) (UniProt P50613+P51948+P51946)
[15] = molecular target: CDK5 CDK5R1 p35 (human) (UniProt Q00535+Q15078)
[16] = molecular target: CDK2 CCNE1 (human) (UniProt P24941+P24864)
Sequence of CDK2 CCNE1 (human) (P24864 whole entry, looked up, other chains not shown): as the sequence (P24864 whole entry, looked up) above

[17] = molecular target: MAP3K7 TAB1 (human) (UniProt O43318+Q15750)
[18] = molecular target: CDK4 CCND1 (human) (UniProt P24385+P11802)
[19] = molecular target: CDK5 CDK5R1 p25 (human) (UniProt Q00535+Q15078)
[20] = molecular target: CDK4 CCND3 (human) (UniProt P30281+P11802)
[21] = molecular target: CDK9 CCNT1 (human) (UniProt P50750+O60563)

Sequence of STK33 (human) (Q9BYT3 whole entry, looked up): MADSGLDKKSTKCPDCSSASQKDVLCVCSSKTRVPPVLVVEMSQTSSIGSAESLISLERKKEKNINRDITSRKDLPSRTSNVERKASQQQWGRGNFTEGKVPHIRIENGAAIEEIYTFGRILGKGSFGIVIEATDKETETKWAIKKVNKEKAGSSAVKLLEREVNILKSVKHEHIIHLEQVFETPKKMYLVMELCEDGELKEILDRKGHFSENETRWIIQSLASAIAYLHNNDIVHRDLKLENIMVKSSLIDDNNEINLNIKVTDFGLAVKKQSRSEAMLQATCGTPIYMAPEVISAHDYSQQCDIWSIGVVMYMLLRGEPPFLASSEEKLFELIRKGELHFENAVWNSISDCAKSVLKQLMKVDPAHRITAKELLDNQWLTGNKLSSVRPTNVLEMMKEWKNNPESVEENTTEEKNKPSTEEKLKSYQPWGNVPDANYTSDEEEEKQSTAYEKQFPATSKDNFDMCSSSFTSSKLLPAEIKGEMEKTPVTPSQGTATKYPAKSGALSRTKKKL
Sequence of LTK (human) (P29376 whole entry, looked up): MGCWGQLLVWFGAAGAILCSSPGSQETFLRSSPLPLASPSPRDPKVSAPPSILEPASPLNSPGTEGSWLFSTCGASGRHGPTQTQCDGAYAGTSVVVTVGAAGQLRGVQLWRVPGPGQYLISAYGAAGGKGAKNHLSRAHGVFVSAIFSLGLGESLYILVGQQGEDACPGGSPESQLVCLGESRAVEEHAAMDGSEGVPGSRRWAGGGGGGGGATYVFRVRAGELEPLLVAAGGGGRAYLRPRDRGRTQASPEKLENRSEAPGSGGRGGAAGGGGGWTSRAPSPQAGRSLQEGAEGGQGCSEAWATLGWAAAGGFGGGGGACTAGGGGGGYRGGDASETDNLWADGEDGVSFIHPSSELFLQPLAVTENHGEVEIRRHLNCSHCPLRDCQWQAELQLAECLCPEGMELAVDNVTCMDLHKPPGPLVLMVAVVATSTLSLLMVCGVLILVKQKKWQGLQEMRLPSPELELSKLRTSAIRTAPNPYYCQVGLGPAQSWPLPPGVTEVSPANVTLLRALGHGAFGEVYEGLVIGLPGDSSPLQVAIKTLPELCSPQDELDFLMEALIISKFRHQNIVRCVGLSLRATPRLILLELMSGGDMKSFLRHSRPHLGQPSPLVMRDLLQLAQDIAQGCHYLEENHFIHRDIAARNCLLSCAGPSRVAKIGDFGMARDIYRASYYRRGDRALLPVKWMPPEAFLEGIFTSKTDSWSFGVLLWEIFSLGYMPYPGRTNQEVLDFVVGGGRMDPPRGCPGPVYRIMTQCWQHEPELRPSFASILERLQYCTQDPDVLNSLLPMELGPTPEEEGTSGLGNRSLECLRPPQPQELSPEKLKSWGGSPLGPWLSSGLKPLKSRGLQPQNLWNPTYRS
Sequence of CDK1 CCNB1 (human) (P06493 whole entry, looked up): as the sequence (P06493 whole entry, looked up) above
Sequence of CDK1 CCNB1 (human) (P14635 whole entry, looked up): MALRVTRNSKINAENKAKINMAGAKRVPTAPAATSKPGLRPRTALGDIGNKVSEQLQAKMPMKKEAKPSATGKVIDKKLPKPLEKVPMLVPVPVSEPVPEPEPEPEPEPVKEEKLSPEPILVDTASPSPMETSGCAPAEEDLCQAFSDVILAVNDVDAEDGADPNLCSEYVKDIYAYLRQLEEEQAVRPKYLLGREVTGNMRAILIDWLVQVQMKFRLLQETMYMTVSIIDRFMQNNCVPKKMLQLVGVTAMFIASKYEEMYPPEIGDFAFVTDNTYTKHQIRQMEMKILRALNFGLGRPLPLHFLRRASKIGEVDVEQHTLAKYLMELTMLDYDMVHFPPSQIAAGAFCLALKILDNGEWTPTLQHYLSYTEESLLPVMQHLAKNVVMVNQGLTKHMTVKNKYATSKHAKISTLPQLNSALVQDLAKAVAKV
Sequence of PRKCH (human) (P24723 whole entry, looked up): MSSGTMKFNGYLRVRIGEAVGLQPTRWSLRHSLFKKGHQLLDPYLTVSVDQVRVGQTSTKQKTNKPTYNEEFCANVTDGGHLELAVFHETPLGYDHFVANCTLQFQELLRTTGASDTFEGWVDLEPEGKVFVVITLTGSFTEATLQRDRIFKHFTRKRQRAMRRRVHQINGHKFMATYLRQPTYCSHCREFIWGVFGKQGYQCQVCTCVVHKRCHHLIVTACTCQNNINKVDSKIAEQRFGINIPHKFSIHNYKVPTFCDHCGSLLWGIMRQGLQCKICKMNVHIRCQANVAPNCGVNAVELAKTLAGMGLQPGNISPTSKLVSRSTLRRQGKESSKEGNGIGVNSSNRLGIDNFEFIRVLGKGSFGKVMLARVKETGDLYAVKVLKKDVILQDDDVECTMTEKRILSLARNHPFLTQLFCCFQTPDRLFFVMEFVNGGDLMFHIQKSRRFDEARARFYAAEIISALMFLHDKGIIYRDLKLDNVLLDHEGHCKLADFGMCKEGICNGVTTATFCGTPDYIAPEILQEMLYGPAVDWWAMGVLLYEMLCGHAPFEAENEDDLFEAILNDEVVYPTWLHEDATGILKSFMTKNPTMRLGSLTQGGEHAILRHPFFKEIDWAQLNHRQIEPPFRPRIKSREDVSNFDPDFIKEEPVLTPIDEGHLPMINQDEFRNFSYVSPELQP
Sequence of DYRK1B (human) (Q9Y463 whole entry, looked up): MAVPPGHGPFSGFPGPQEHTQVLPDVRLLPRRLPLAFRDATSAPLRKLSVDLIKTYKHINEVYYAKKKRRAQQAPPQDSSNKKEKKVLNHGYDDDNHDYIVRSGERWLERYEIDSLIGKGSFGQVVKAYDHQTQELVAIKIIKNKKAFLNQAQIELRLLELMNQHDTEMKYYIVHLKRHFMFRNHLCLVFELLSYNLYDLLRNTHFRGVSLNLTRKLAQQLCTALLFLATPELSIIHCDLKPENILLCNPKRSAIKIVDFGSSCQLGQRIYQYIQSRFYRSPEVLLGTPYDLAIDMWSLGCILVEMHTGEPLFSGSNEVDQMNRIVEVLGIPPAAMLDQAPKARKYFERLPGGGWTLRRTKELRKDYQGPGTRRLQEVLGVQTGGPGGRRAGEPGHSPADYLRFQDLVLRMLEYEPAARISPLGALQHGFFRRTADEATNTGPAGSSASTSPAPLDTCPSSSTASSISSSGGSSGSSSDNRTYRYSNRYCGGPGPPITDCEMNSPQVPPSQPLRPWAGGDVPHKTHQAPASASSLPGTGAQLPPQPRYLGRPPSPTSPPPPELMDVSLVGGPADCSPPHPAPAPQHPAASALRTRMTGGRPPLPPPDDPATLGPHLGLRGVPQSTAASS

Structure (SMILES)	residual activity [1]	residual activity [2]	residual activity [3]	residual activity [4]	residual activity [5]	residual activity [8]	residual activity [9]	residual activity [10]	residual activity [11]	residual activity [12]	residual activity [13]	residual activity [14]	residual activity [15]	residual activity [16]	residual activity [18]	residual activity [19]	residual activity [20]	residual activity [21]	further results
COc1cc(OC)c(/C=C2\C(=O)Nc3ccccc32)c(OC)c1	95.3%	82.2%	83%	89.5%	99%	96.3%	103%												residual activity [6]: 59.6%; residual activity [7]: 100%
NC(=O)Nc1sc(-c2ccc(F)cc2)cc1C(N)=O		83.5%																	
c1cc(-c2cnn3cc(-c4ccc(OCCN5CCCCC5)cc4)cnc23)ccn1	95.4%	95%	79.3%	37.4%	26.2%	87.7%	92.2%	21.2%	36.7%	89.9%	14.8%	83.7%	67.7%	77.5%	35.3%	68.2%	60.7%	65%	residual activity [17]: 49.7%
NC(=O)c1ccc2[nH]c(-c3ccc(Oc4ccc(Cl)cc4)cc3)nc2c1		93.4%																	
Cc1ccc(NC(=O)c2ccc(CN3CCN(C)CC3)cc2)cc1Nc1nccc(-c2cccnc2)n1	100%		103%		97.9%			99%	103%	97.5%	103%	101%	103%		97.5%	98.1%	107%	100%	
O=C1c2ccccc2-[n+]2ccc3c([nH]c4ccccc43)c21	121%	87.1%		101%	98.7%	72.4%	68%			80.1%				80.3%					
